Measurements taken from PubChem BioAssay (NCI).
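Following 48 hours of exposure in 96-well plates, responses at five concentrations were used to interpolate endpoints linearly. The concentration for full growth arrest is given as TGI.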

Key:
Experiment in all cases: growth of human tumour cells (NCI), 48 h
[1] = system: 786-0 renal
[2] = system: A498 renal
[3] = system: A549 NSCLC
[4] = system: ACHN renal
[5] = system: CAKI-1 renal
[6] = system: CCRF-CEM leukemia
[7] = system: COLO 205 colon
[8] = system: DMS 114 small cell lung
[9] = system: DMS 273 small cell lung
[10] = system: EKVX NSCLC
[11] = system: HCC-2998 colon
[12] = system: HCT-116 colon
[13] = system: HCT-15 colon
[14] = system: HL-60(TB) leukemia
[15] = system: HOP-62 NSCLC
[16] = system: HOP-92 NSCLC
[17] = system: HT29 colon
[18] = system: IGROV1 ovarian
[19] = system: K-562 leukemia
[20] = system: KM12 colon
[21] = system: KM20L2 colon
[22] = system: LOX IMVI melanoma
[23] = system: LXFL 529 NSCLC
[24] = system: M14 melanoma
[25] = system: M19-MEL melanoma
[26] = system: MALME-3M melanoma
[27] = system: NCI-H226 lung
[28] = system: NCI-H23 lung
[29] = system: NCI-H460 lung
[30] = system: NCI-H522 lung
[31] = system: OVCAR-3 ovarian
[32] = system: OVCAR-4 ovarian
[33] = system: OVCAR-5 ovarian
[34] = system: OVCAR-8 ovarian
[35] = system: RPMI-8226 leukemia
[36] = system: RXF 393 renal
[37] = system: RXF-631 renal
[38] = system: SF-268 CNS
[39] = system: SF-295 CNS
[40] = system: SF-539 CNS
[41] = system: SK-MEL-2 melanoma
[42] = system: SK-MEL-28 melanoma
[43] = system: SK-MEL-5 melanoma
[44] = system: SK-OV-3 ovarian
[45] = system: SN12C renal
[46] = system: SNB-19 CNS
[47] = system: SNB-75 CNS
[48] = system: SNB-78 CNS
[49] = system: SW-620 colon
[50] = system: TK-10 renal
[51] = system: U251 CNS
[52] = system: UACC-257 melanoma
[53] = system: UACC-62 melanoma
[54] = system: UO-31 renal
[55] = system: XF 498 CNS
[56] = system: DLD-1 colon
[57] = system: MOLT-4 leukemia

Measured: TGI

CCOC(=O)C1=C(NC)OCC1=O
> 100 µM: [1] | [2] | [3] | [4] | [5] | [6] | [7] | [8] | [9] | [10] | [11] | [12] | [13] | [14] | [15] | [16] | [17] | [18] | [19] | [20] | [21] | [22] | [23] | [24] | [25] | [26] | [27] | [28] | [29] | [30] | [31] | [32] | [33] | [34] | [35] | [36] | [37] | [38] | [39] | [40] | [41] | [42] | [43] | [44] | [45] | [46] | [47] | [48] | [49] | [50] | [51] | [52] | [53] | [54] | [55]

COc1ccc2nc(NC(=O)C(=O)CC(=O)c3ccc([N+](=O)[O-])cc3)sc2c1
> 100 µM: [1] | [2] | [3] | [4] | [5] | [6] | [7] | [56] | [8] | [9] | [10] | [11] | [12] | [15] | [16] | [17] | [18] | [19] | [20] | [21] | [23] | [24] | [25] | [26] | [57] | [27] | [28] | [29] | [30] | [31] | [32] | [33] | [34] | [35] | [37] | [38] | [40] | [41] | [42] | [43] | [44] | [45] | [46] | [47] | [49] | [51] | [52] | [53] | [54] | [55]
